The test system of assay [1] is UTP-stimulated Ca2+ response in HT-29 cells. The experiment in a line: Ca FLIPR TETRA assay, ANTAGONIST mode, stimulation with 0.6 μM UTP. Format: cell-based, human. Conditions: Homo sapiens; HT-29 cells, antagonist mode, stimulation with 0.6 μM UTP. Put shortly: (§1)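 Antagonist-mode FLIPR Tetra Ca2+ readout: after 30 min r.t. compound pre-incubation, HT-29 cells are challenged with trypsin (3.1 U/mL final), SLIGKV (8 μM), thrombin (1 U/mL) or UTP (0.6 μM). Cells were plated overnight in 1% FBS medium and dye-loaded with Calcium 5; an initial read checks compound agonism.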

Assay [2] relates to Thrombin-stimulated Ca2+ response in HT-29 cells. Put plainly: Ca FLIPR TETRA assay, ANTAGONIST mode, stimulation with 1 U/mL Thrombin. Format: cell-based, human. The settings on record: Homo sapiens; HT-29 cells, antagonist mode, stimulation with 1 U/mL Thrombin. Put shortly:
as §1

Assay [3] addresses T1, PAR2 (HT-29 cells, trypsin activation) (Homo sapiens, UniProt P55085).
T1 construct: host or cells: HT-29 cells
T1 sequence (P55085 26-397): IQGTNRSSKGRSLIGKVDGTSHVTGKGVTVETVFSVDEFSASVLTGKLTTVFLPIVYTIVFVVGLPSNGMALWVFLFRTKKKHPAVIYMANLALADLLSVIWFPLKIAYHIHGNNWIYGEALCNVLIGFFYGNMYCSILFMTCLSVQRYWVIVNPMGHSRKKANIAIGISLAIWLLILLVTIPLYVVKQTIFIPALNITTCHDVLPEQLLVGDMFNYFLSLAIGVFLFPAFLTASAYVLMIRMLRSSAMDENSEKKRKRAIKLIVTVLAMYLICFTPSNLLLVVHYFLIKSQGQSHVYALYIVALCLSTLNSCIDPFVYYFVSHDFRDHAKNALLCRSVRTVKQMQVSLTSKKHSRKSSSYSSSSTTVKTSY
The experiment in a line: Ca FLIPR TETRA assay, ANTAGONIST mode, stimulation with 3.1 U/mL trypsin. Format: cell-based. Conditions: HT-29 cells, antagonist mode, stimulation with 3.1 U/mL trypsin. Put shortly: as §1

Assay [4] concerns the target T2, PAR2 (HT-29 cells, SLIGKV activation) (Homo sapiens, UniProt P55085).
T2 construct: host or cells: HT-29 cells
T2 sequence (P55085 26-397): T1 sequence (P55085 26-397)
The experiment in a line: Ca FLIPR TETRA assay, ANTAGONIST mode, stimulation with 8 μM SLIGKV. The format is cell-based. The settings on record: HT-29 cells, antagonist mode, stimulation with 8 μM SLIGKV. Put shortly:
as §1

A value given as a limit tells only on which side of the number the result lay.

For the compound `Cc1cc(C(=O)N2CCN(C(=O)c3cn4nc(C5CCC(F)(F)CC5)cc(C(C)(C)C)c4n3)C(C)(C)C2)[nH]n1` [Compound I-437], the half-maximal inhibitory concentration (IC50) in assay [1] is over 1000 nM; in assay [2] it was over 1000 nM; in assay [3], 2 nM; in assay [4], 0.7 nM.

On to `CC(C)(C)c1cc(-c2ccc(F)c(Cl)c2)nn2cc(C(=O)N3CCNC(=O)C3(C)C)nc12` [Compound I-438], for which the IC50 in assay [1] is over 1000 nM; in assay [2], over 1000 nM; in assay [3], 2.6 nM; in assay [4], 1.5 nM.

`Cc1cc(F)ccc1-c1cc(C(C)(C)C)c2nc(C(=O)N3CCNC(=O)C3(C)C)cn2n1` [Compound I-439]: the IC50 was over 1000 nM in assay [1], over 1000 nM in assay [2], 125 nM in assay [3] and 81 nM in assay [4].

Regarding `Cc1cc(-c2cc(C(C)C)c3nc(C(=O)N4CCN(C)C(=O)C4(C)C)cn3n2)ccc1F` [Compound I-440], the IC50 is over 1000 nM in assay [1], over 1000 nM in assay [2], 14 nM in assay [3] and 8.1 nM in assay [4].

As to `Cc1ncc(C(=O)N2CCN(C(=O)c3cn4nc(-c5ccc(Cl)cc5)cc(C(C)(C)C)c4n3)C(C)(C)C2)[nH]1` [Compound I-441], the half-maximal inhibitory concentration (IC50) is over 1000 nM in assay [1], over 1000 nM in assay [2], 0.6 nM in assay [3] and 0.5 nM in assay [4].

For `Cc1cc(-c2cc(C(C)C)c3nc(C(=O)N4CN(Cc5ccccc5)C(=O)C4(C)C)cn3n2)ccc1F` [Compound I-442, 3-benzyl-1-[6-(4-fluoro-3-methyl-phenyl)-8-isopropyl-imidazo[1,2-b]pyridazine-2-carbonyl]-5,5-dimethyl-imidazolidin-4-one], the IC50 in assay [1] was over 1000 nM; in assay [2] it was over 1000 nM; in assay [3] it was 150 nM; in assay [4], 109 nM.

On to `Cc1nnc(C(=O)N2CCN(C(=O)c3cn4nc(-c5ccc(Cl)cc5)cc(C(C)(C)C)c4n3)C(C)(C)C2)o1` [Compound I-443], for which the IC50 in assay [1] is over 1000 nM; in assay [2], over 1000 nM; in assay [3] it was 1.2 nM; in assay [4], 0.8 nM.

For the compound `CC(C)(C)c1cc(-c2ccc(Cl)cc2)nn2cc(C(=O)N3CCN(C(=O)c4ccccn4)CC3(C)C)nc12` [Compound I-444], the concentration for half-maximal inhibition (IC50) in assay [1] was over 1000 nM; in assay [2], over 1000 nM; in assay [3] it was 1.3 nM; in assay [4], 0.8 nM.

For the compound `CC(C)(C)c1cc(-c2ccc(Cl)cc2)nn2cc(C(=O)N3CCN(C(=O)c4ncccn4)CC3(C)C)nc12` [Compound I-445], the IC50 is over 1000 nM in assay [1], over 1000 nM in assay [2], 0.9 nM in assay [3] and 0.4 nM in assay [4].

For the compound `CC(C)(C)C1CC(c2ccc(F)cc2)=Nn2cc(C(=O)N3CCNC(=O)C3(C)C)nc21` (stereo not drawn) [Compound I-446], the 50% inhibitory concentration (IC50) was over 1000 nM in assay [1], over 1000 nM in assay [2], 104 nM in assay [3] and 56 nM in assay [4].

In the case of `Cc1cc(C2=Nn3cc(C(=O)N4CCNC(=O)C4(C)C)nc3C(C(C)C)C2)ccc1F` (stereo not drawn) [Compound I-447], the IC50 in assay [1] is over 1000 nM; in assay [2] it was over 1000 nM; in assay [3], 180 nM; in assay [4], 170 nM.

For the compound `Cc1cc(-c2cc(C(C)C)c3nc(C(=O)N4CCN(CC(C)(C)O)C(=O)C4(C)C)cn3n2)ccc1F` [Compound I-449], the concentration for half-maximal inhibition (IC50) in assay [1] was over 1000 nM; in assay [2], over 1000 nM; in assay [3], 46.5 nM; in assay [4], 25.5 nM.

As to `Cc1cc(C(=O)N2CCN(C(=O)c3cn4nc(-c5ccc(Cl)c(F)c5)cc(C(C)(C)C)c4n3)C(C)(C)C2)[nH]n1` [Compound I-450], the IC50 in assay [1] was over 1000 nM; in assay [2] it was over 1000 nM; in assay [3] it was 0.3 nM; in assay [4], 0.1 nM.

Consider `Cc1nc(C(=O)N2CCN(C(=O)c3cn4nc(-c5ccc(Cl)c(F)c5)cc(C(C)(C)C)c4n3)C(C)(C)C2)n[nH]1` [Compound I-451], for which the half-maximal inhibitory concentration (IC50) in assay [1] is 710 nM; in assay [2], over 1000 nM; in assay [3], 0.3 nM; in assay [4], 0.1 nM.

For `Cc1ncc(C(=O)N2CCN(C(=O)c3cn4nc(-c5ccc(Cl)c(F)c5)cc(C(C)(C)C)c4n3)C(C)(C)C2)[nH]1` [Compound I-453], the IC50 in assay [1] was over 1000 nM; in assay [2], over 1000 nM; in assay [3], 1.2 nM; in assay [4], 0.7 nM.

`CC(C)(C)c1cc(-c2ccc(Cl)c(F)c2)nn2cc(C(=O)N3CCN(C(=O)c4ccn[nH]4)CC3(C)C)nc12` [Compound I-454]: the IC50 was over 1000 nM in assay [1], over 1000 nM in assay [2], 0.7 nM in assay [3] and 0.4 nM in assay [4].

Take `CC(C)(C)c1cc(-c2ccc(Cl)c(F)c2)nn2cc(C(=O)N3CCN(C(=O)c4ccccn4)CC3(C)C)nc12` [Compound I-455]: the IC50 in assay [1] was over 1000 nM; in assay [2], over 1000 nM; in assay [3], 0.9 nM; in assay [4] it was 0.6 nM.

Regarding `CC(C)(C)c1cc(-c2ccc(Cl)c(F)c2)nn2cc(C(=O)N3CCN(C(=O)c4ncccn4)CC3(C)C)nc12` [Compound I-456], the IC50 in assay [1] was over 1000 nM; in assay [2], over 1000 nM; in assay [3], 0.7 nM; in assay [4], 0.5 nM.

In the case of `Cc1nnc(C(=O)N2CCN(C(=O)c3cn4nc(-c5ccc(Cl)c(F)c5)cc(C(C)(C)C)c4n3)C(C)(C)C2)o1` [Compound I-457], the IC50 in assay [1] was over 1000 nM; in assay [2], over 1000 nM; in assay [3], 0.8 nM; in assay [4], 0.6 nM.

For the compound `CC(C)(C)c1cc(-c2ccc(F)c(Cl)c2)nn2cc(C(=O)N3CCN(C(=O)c4ccccn4)CC3(C)C)nc12` [Compound I-458], the half-inhibitory concentration (IC50) in assay [1] is over 1000 nM; in assay [2], over 1000 nM; in assay [3] it was 2.1 nM; in assay [4], 1.3 nM.

`CC(C)(C)c1cc(-c2ccc(F)c(Cl)c2)nn2cc(C(=O)N3CCN(C(=O)c4ccn[nH]4)CC3(C)C)nc12` [Compound I-459]: the IC50 in assay [1] is over 1000 nM; in assay [2] it was over 1000 nM; in assay [3], 1.5 nM; in assay [4], 1 nM.

As to `CC(C)(C)c1cc(-c2ccc(F)c(Cl)c2)nn2cc(C(=O)N3CCN(C(=O)[C@H]4C[C@@](C)(O)C4)CC3(C)C)nc12` [Compound I-460], the IC50 was over 1000 nM in assay [1], over 1000 nM in assay [2], 0.7 nM in assay [3] and 0.5 nM in assay [4].

For `Cc1nnc(C(=O)N2CCN(C(=O)c3cn4nc(C5CCC(F)(F)CC5)cc(C(C)(C)C)c4n3)C(C)(C)C2)o1` [Compound I-461], the IC50 in assay [1] is over 1000 nM; in assay [2], over 1000 nM; in assay [3], 39.8 nM; in assay [4], 14.8 nM.

On to `CC(C)(C)c1cc(-c2ccc(F)cc2)nn2cc(C(=O)N3CCNC(=O)C34CCCC4)nc12` [Compound I-462, 6-(8-(tert-butyl)-6-(4-fluorophenyl)imidazo[1,2-b]pyridazine-2-carbonyl)-6,9-diazaspiro[4.5]decan-10-one], for which the 50% inhibitory concentration (IC50) was over 1000 nM in assay [1], over 1000 nM in assay [2], 3.7 nM in assay [3] and 2.2 nM in assay [4].

In the case of `CC(C)(C)c1cc(-c2ccc(C(F)(F)F)cc2)nn2cc(C(=O)N3CCN(C(=O)[C@H]4C[C@@](C)(O)C4)CC3(C)C)nc12` [Compound I-463], the half-maximal inhibitory concentration (IC50) was over 1000 nM in assay [1], over 1000 nM in assay [2], 2.7 nM in assay [3] and 1.8 nM in assay [4].

Turning to `CC(C)(C)c1cc(-c2ccc(F)c(Cl)c2)nn2cc(C(=O)N3CCN(C(=O)c4ncccn4)CC3(C)C)nc12` [Compound I-464], the IC50 was over 1000 nM in assay [1], over 1000 nM in assay [2], 2.2 nM in assay [3] and 1.2 nM in assay [4].

In the case of `Cc1nnc(C(=O)N2CCN(C(=O)c3cn4nc(-c5ccc(F)c(Cl)c5)cc(C(C)(C)C)c4n3)C(C)(C)C2)o1` [Compound I-465], the IC50 in assay [1] was over 1000 nM; in assay [2] it was over 1000 nM; in assay [3], 3.7 nM; in assay [4] it was 1.8 nM.

`Cc1cc(C(=O)N2CCN(C(=O)c3cn4nc(-c5ccc(F)c(Cl)c5)cc(C(C)(C)C)c4n3)C(C)(C)C2)[nH]n1` [Compound I-466]: the half-inhibitory concentration (IC50) is over 1000 nM in assay [1], over 1000 nM in assay [2], 1.9 nM in assay [3] and 0.7 nM in assay [4].

For `Cc1ncc(C(=O)N2CCN(C(=O)c3cn4nc(-c5ccc(F)c(Cl)c5)cc(C(C)(C)C)c4n3)C(C)(C)C2)[nH]1` [Compound I-467], the IC50 in assay [1] was over 1000 nM; in assay [2] it was over 1000 nM; in assay [3] it was 2 nM; in assay [4], 0.9 nM.

For the compound `Cc1n[nH]c(C(=O)N2CCN(C(=O)c3cn4nc(-c5ccc(F)c(Cl)c5)cc(C(C)(C)C)c4n3)C(C)(C)C2)n1` [Compound I-468], the half-maximal inhibitory concentration (IC50) was determined as 2120 nM in assay [1], 3240 nM in assay [2], 1.2 nM in assay [3] and 0.7 nM in assay [4].

Source of the values: US20190119282A1, “IMIDAZOPYRIDAZINES USEFUL AS INHIBITORS OF THE PAR-2 SIGNALING PATHWAY” (Vertex Pharmaceuticals Incorporated, priority 2013, published 2019).
